Data set [1] has as its target T1, human serum albumin (HSA) (Homo sapiens, UniProt P02768).
T1 construct: purchased CHIRAL PAK
As to the kind of experiment: HSA chromatography and estimated plasma protein binding. The format is in vitro ADME. The settings on record: for fraction unbound: human, immobilized human serum albumin (HSA) column, Equation (2) from logk10, pH 7.00, read-out: %PPB estimated plasma protein binding (converted); for logk10 (HSA retention factor): pH 7.00, 10% acetonitrile. The procedure:
The novel coumarin derivatives were also studied using the immobilized protein column HSA. An HSA chromatographic column provides estimates on the binding affinities of chemicals to human serum albumin, which is the most abundant plasma protein and is related to drug efficacy, drug—drug pharmacokinetic interactions, and drug safety. HSA binding can be considered to represent almost the total plasma protein binding of a drug.
Retention factors on the HSA stationary phase were measured using as eluent PBS at pH = 7.00 and a flow rate of 1 mL/min in the presence of 10% acetonitrile.
(2) % PPB=101∗10^logk10/1+10^logk10
The physicochemical and biomimetic properties of the new coumarin analogues were studied using liquid chromatography (HPLC) in 220–230 nm Two types of chromatographic columns were used: (i) immobilized artificial membrane (IAM) ([…].PC.DD.2, Regis Technologies) column and (ii) human serum albumin (HSA) (CHIRAL PAK) column.
The training set consisted of 25 neutral and slightly acidic compounds. Their IAM retention factors were measured at pH 7.40 on a IAM.PC.DD.2 column. The mobile phase consisted of acetonitrile solvent (CH3CN) in various concentrations (10%, 15%, 20%, 25%, 30%) and a flow rate of 3 mL/min was selected. Their HSA retention factors were measured at pH 7.00 on HSA column. The mobile phase consisted of acetonitrile solvent (CH3CN) in 10% concentration and a flow rate of 1 mL/min was selected.
The different pH values (7.00 for HSA and 7.40 for IAM) were measured with an electronic pH meter MP125 and were achieved by preparing suitable buffers of phosphates and chlorides (0.12 g KH2PO4, 0.72 g Na2HPO4·2H2O, 4.00 g NaCl and 0.10 g KCl). Sodium citrate solution was used to determine the dead time, which was deducted from the results at the end of measurements. The elution time of each coumarin analogue was measured at least three times. Retention times were converted into logk values, which represent the logarithm of the retention indexes, using Equation (8). (8) logk=log(tr−t0/t0) where tr is the retention time of the coumarin derivative and t0 is the dead time.

The target in another data set is T2, soybean LOX (Glycine max, UniProt P08170).
T2 construct: purchased Sigma-Aldrich and Fluka
T2 sequence (P08170 1-839): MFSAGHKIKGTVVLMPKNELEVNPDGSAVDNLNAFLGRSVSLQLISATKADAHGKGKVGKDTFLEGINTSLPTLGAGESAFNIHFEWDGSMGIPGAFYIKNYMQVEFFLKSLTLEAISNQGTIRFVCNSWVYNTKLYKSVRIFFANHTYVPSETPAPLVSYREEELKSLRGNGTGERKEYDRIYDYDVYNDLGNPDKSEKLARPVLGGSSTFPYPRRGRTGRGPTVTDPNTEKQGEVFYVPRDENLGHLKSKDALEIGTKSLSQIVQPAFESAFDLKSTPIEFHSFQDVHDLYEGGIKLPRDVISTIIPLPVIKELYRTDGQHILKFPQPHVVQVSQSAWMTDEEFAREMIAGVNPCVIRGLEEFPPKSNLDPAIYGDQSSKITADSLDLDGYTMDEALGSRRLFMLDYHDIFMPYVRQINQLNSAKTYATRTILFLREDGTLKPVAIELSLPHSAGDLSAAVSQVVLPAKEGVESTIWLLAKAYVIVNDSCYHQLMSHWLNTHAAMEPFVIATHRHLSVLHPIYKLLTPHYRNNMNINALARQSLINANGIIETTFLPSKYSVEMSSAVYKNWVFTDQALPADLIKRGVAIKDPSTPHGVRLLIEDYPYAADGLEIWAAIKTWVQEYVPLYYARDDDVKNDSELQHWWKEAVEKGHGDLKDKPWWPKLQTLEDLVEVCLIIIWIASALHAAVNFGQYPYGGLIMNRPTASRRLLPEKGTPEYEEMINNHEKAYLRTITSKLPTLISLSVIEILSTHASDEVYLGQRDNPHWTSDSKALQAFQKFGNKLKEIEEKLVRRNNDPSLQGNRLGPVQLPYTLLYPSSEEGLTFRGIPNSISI
In words: Inhibition of soybean LOX. The format is biochemical. The settings on record: for inhibition at 100 µM: read-out: Soybean LOX % inhibition (100 μΜ). The procedure:
Soybean LOX is a plant enzyme which has been used widely as a prototype for studying the functional and structural properties of the homologous family of lipoxygenases, presenting satisfactory homology with the human 5-LOX [14]. Linoleic acid (LA) is a standard substrate for plant LOXs. In this protocol, all new molecules were tested as inhibitors of soybean LOX as an indication of their anti-inflammatory activity (Table 3).
For the reference sample in a UV cuvette 10 μL of the test sample (100 μM diluted in DMSO), 200 μL LOX solution (diluted in NaCl 0.9%), 100 μL LA (diluted in Tris buffer) and Tris buffer solution (pH 9) were added to a final volume of 1 mL. Respectively for the measurement sample, also in a UV cuvette 10 μL of test sample, 200 μL LOX solution, and Tris buffer solution (pH 9) were added to a final volume of 1mL. Standard and blank samples were prepared in the same way using DMSO (solvent) instead of the tested coumarin analogues.

In the next data set the test system is A375 cells. In words: MTT cytotoxicity assay, A375. The following applies: Homo sapiens, A-375, 24 h, A375, 100 μΜ, read-out: Cell Toxicity A375 % (100 μΜ). The format is cell-based, human. Here is the method: Furthermore, the coumarin compounds synthesized in this study were also evaluated for their cytotoxicity against A549 (adenocarcinomic human alveolar basal epithelial cells) and A375 (human melanoma) cell lines.
This protocol was used for the evaluation of cell viability and all the cell lines. It must be noted that this assay describes the count of cells that remain alive after the treatment. For the experimental procedure a standard solution of MTT 1mg/mL in PBS was prepared which after filtration ([…] filter (Millipore, Carrigtwohill, Ireland)) was stored in the dark (4–8 °C) until use. In a 96-well plate, HaCaT, A549 and A375 cells were seeded in a number of 30 × 10^4 cells/well for each evaluation series respectively. The cells were incubated (37 °C, 5% CO2) for 24 h, followed by the addition of the tested analogues (100 μM, diluted in DMEM) and another 24-h incubation. Next, appropriate amount of MTT was added in the tested wells and the plate returned to the incubator for the next 4 h for the formation of the formazan crystals. The formazan crystals were then redissolved by adding DMSO (100 μL) and stirring lightly for 40 min, after which the absorbance was measured in a plate reader at 540 nm with a reference absorbance of 720 nm.
All samples were tested in triplicate, against a control (only cells), blank (no cells), and positive control (100 μM standard silibinin solution was used as a “cell-killing” standard).

The values below come from publication PMC8512853, “Synthesis, Bioactivity, Pharmacokinetic and Biomimetic Properties of Multi-Substituted Coumarin Derivatives” (Molecules, 2021).

T1 sequence (P02768 25-609): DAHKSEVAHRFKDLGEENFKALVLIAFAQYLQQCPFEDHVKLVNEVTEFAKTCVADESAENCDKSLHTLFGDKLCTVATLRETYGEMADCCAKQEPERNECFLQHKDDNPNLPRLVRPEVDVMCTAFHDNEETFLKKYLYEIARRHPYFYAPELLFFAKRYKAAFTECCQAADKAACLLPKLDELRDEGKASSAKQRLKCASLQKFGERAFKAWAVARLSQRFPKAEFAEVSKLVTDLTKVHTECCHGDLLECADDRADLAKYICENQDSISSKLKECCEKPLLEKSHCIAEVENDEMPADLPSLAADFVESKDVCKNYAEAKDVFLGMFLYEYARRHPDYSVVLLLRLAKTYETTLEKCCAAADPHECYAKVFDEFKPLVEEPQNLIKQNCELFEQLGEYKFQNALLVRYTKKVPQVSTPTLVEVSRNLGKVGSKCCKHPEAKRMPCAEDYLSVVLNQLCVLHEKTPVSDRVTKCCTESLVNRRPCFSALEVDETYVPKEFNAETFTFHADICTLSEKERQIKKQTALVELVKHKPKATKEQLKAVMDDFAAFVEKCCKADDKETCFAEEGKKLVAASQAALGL

As for `CC(=O)Oc1ccc(-c2c(C)c3cc(Br)cc(Br)c3oc2=O)cc1OC(C)=O` [Compound 3o, 3-(4,5-diacetyloxyphenyl)-6,8-dibromo-4-methyl-chromen-2-one], in data set [1], the fraction unbound is 0.201 and the “logk10 (HSA retention factor)” value is recorded as 0.58. For the same compound, the “Soybean LOX % inhibition (100 μΜ)” value on soybean LOX (100 μΜ) is recorded as “no”. For the same compound, the cytotoxicity at 100 µM in the data set on A375 cells was determined as 45.6%.
As usually defined, the IC50 is the concentration needed to halve the response being measured. Low readings indicate higher potency, high ones lower potency. With `Cc1c(-c2ccccc2Cl)c(=O)oc2cccc(O)c12` [Compound 4a, 3-(2-chlorophenyl)-5-hydroxy-4-methyl-chromen-2-one], in data set [1], the fraction unbound was 0.13 and the “logk10 (HSA retention factor)” value is on record as 0.79. The compound further displayed an IC50 on soybean LOX of 10 µM. Also, in the data set with A375 cells, the cytotoxicity at 100 µM stood at 33.1%.
Broadly, the inhibition is how much of the control response was suppressed. With `Cc1c(-c2cccc(Cl)c2)c(=O)oc2cccc(O)c12` [Compound 4b, 3-(3-chlorophenyl)-5-hydroxy-4-methyl-chromen-2-one], in data set [1], the fraction unbound is 0.201 and the “logk10 (HSA retention factor)” value is listed as 0.58. Further, the inhibition at 100 µM at soybean LOX amounted to 47.3%. The cytotoxicity at 100 µM in the data set on A375 cells was 52.8%.
As to `Cc1c(-c2ccc(Cl)cc2)c(=O)oc2cccc(O)c12` [Compound 4c, 3-(4-chlorophenyl)-5-hydroxy-4-methyl-chromen-2-one], in data set [1], the fraction unbound was 0.152 and the “logk10 (HSA retention factor)” value is listed as 0.72. Further, the inhibition at 100 µM on soybean LOX worked out at 0.9%. Besides, the cytotoxicity at 100 µM in the data set on A375 cells was 22.2%.
As to `Cc1c(-c2ccccc2F)c(=O)oc2cccc(O)c12` [Compound 4d, 3-(2-fluorophenyl)-5-hydroxy-4-methyl-chromen-2-one], in data set [1], the fraction unbound is 0.152 and the “logk10 (HSA retention factor)” value is on record as 0.72. The compound also displayed an IC50 against soybean LOX of 31.6 µM. Also, the cytotoxicity at 100 µM with A375 cells stood at 11.5%.
Consider `Cc1c(-c2cccc(F)c2)c(=O)oc2cccc(O)c12` [Compound 4e, 3-(3-fluorophenyl)-5-hydroxy-4-methyl-chromen-2-one], for which, in data set [1], the fraction unbound was 0.034 and the “logk10 (HSA retention factor)” value is given as 1.34. At soybean LOX, the midpoint of inhibition, the IC50, lay at 4.1 µM. For the same compound, in the data set with A375 cells, the cytotoxicity at 100 µM came to 43.1%.
In the case of `Cc1c(-c2ccc(F)cc2)c(=O)oc2cccc(O)c12` [Compound 4f, 3-(4-fluorophenyl)-5-hydroxy-4-methyl-chromen-2-one], in data set [1], the fraction unbound is 0.163 and the “logk10 (HSA retention factor)” value is reported as 0.68. For the same compound, the inhibition at 100 µM on soybean LOX was found to be 39.2%. In the data set on A375 cells, the cytotoxicity at 100 µM was 45.4%.
Turning to `Cc1c(-c2ccc(O)cc2)c(=O)oc2ccccc12` [Compound 4h, 3-(4-hydroxyphenyl)-4-methyl-chromen-2-one], in data set [1], the fraction unbound was 0.03 and the “logk10 (HSA retention factor)” value was 1.38. Also, the inhibition at 100 µM at soybean LOX stood at 27.2%. In addition, the cytotoxicity at 100 µM with A375 cells was determined as 12.6%.
Regarding `Cc1c(-c2ccc(O)cc2)c(=O)oc2ccc(Br)cc12` [Compound 4i, 6-bromo-3-(4-hydroxyphenyl)-4-methyl-chromen-2-one], in data set [1], the fraction unbound was 0.043 and the “logk10 (HSA retention factor)” value is 1.26. Also, the inhibition at 100 µM on soybean LOX came out at 19.3%. Besides, the cytotoxicity at 100 µM with A375 cells was 6.48%.
The corresponding values for `Cc1c(-c2ccc(O)cc2)c(=O)oc2ccc(Cl)cc12` [Compound 4j, 6-chloro-3-(4-hydroxyphenyl)-4-methyl-chromen-2-one] are 0.196, 0.59, 35% and 11.9%.
